Paper PMC7340670, “Phase I study of TAS-115, a novel oral multi-kinase inhibitor, in patients with advanced solid tumors” (Investigational New Drugs, 2019)
“Also recorded” adds a separate entry of the source. Where two headings read alike, the source gives them in different places.

Columns and labels:
[1] = test system: osteoclast differentiation; set-up: method as in data on file; conditions: in vitro; ref data on file; cited from earlier work
soluble VEGFR2 (sVEGFR2) = experiment: Pharmacodynamic marker: sVEGFR2 in plasma; format: in vivo, human
Method: (§1) The secondary objectives were to investigate the PK profile, safety, tolerability, antitumor activity, and pharmacodynamic profile of TAS-115. AEs were graded according to the CTCAE Version 4.03. Response was assessed by radiologic imaging at 6 and 12 weeks from the first dose, and every 12 weeks thereafter. Antitumor effect was evaluated by investigators using Response Evaluation Criteria in Solid Tumors (RECIST) Version 1.1 [17]. If a patient had bone lesions, evaluation was performed using bone scintigraphy and bone scan index (BSI) were calculated by BONENAVI® software (FUJIFILM Toyama Chemical, Co., Ltd., Japan). BSI response was defined as ≥30% reduction in BSI [18]. An exploratory objective was to assess changes in protein levels of soluble MET (sMET), VEGF, and soluble VEGFR2 (sVEGFR2) in plasma, and HGF in serum as pharmacodynamic markers.
(§2) For pharmacodynamic analyses, blood samples were collected on Days 1 and 22 (before dosing, each) in part 1, and Days 1 (pre-dosing) and 19 (pre- and post 6 h) in part 2 and the expansion part. […]
(§3) The planned sample size was up to 90 patients, and it was not based on the formal calculation because of experimental phase I trial. For pharmacodynamics parameters, P values were calculated using the paired t-test for measured values from merged doses. […]

recombinant VEGFR2 = test system: recombinant VEGFR2; set-up: method as in PMID 24140932; conditions: read-out: IC50 against recombinant VEGFR2; cited from earlier work
recombinant MET = test system: recombinant MET; set-up: method as in PMID 24140932; conditions: read-out: IC50 against recombinant MET; cited from earlier work
[2] = Plasma pharmacokinetics in the phase I study; format: in vivo, human; conditions: for half-life / AUC(0-t) / Cmax / Tmax: human, plasma; for half-life: read-out: t1/2 Mean (SD) (converted); for AUC(0-t): read-out: AUC0-24 Mean (SD); for Cmax: read-out: Cmax Mean (SD)
Method: Blood samples were collected for plasma PK assessments pre-dosing and at 1, 2, 3, 4, 6, 8, 12, and 24 h after TAS-115 administration on Days 1 and 8 of cycle 1 in part 1, and on Days 1, 8, and 19 of cycle 1 in part 2 (only pre-dosing on Day 8). TAS-115 concentrations were measured by validated liquid chromatography-tandem mass spectrometry. A preliminary assessment of the effect of food on the PK profile was performed. Blood samples after administration under fed and empty stomach conditions were collected from the first six patients in the expansion part. Pharmacokinetic parameters were determined using non-compartmental analyses (Phoenix® WinNonlin® version 6.4; Certara LP, Princeton, NJ, USA).

VEGF = experiment: Pharmacodynamic marker: VEGF in plasma; format: in vivo, human
Method: as §1, §2, §3

192-panel kinase = target: 192-panel kinase; set-up: method as in PMID 24140932; conditions: 192-panel kinase assay; read-out: IC50 for 53 (28%) kinases, including MET, AXL, c-kit, Src, PDGFR-alpha and –beta; cited from earlier work
advanced solid tumors = experiment: Antitumor effect by RECIST Version 1.1; format: in vivo, human
Method: as §1

[3] = test system: AKT and ERK1/2 phosphorylation; set-up: method as in PMID 27539855, PMID 27736957; conditions: mouse osteoclasts in vitro; cited from earlier work
[4] = test system: tumor growth and abnormal bone remodeling; set-up: method as in PMID 24140932, PMID 27539855, PMID 27736957; conditions: cited from earlier work
soluble MET (sMET) = experiment: Pharmacodynamic marker: sMET in plasma; format: in vivo, human
Method: as §1
For pharmacodynamic analyses, blood samples were collected on Days 1 and 22 (before dosing, each) in part 1, and Days 1 (pre-dosing) and 19 (pre- and post 6 h) in part 2 and the expansion part. Patients provided written informed consent to provide blood samples for exploratory pharmacodynamics assessments.
The planned sample size was up to 90 patients, and it was not based on the formal calculation because of experimental phase I trial. For pharmacodynamics parameters, P values were calculated using the paired t-test for measured values from merged doses. The data cut-off date for the analyses presented in this report was August 19, 2018. This study is registered with Japan Pharmaceutical Information Center Clinical Trial registry, number JapicCTI-132333.

[5] = expansion part, 650 mg, six patients, not statistically significant
[6] = oral, 200 mg/day, Part 1, Day 1 (single administration), 200 mg/day, n=3
[7] = oral, 200 mg/day, Part 1, Day 8 (multiple administration), 200 mg/day, n=3
[8] = oral, 300 mg/day, Part 1, Day 1 (single administration), 300 mg/day, n=3
[9] = oral, 300 mg/day, Part 1, Day 8 (multiple administration), 300 mg/day, n=2
[10] = oral, 450 mg/day, Part 1, Day 1 (single administration), 450 mg/day, n=3
[11] = oral, 450 mg/day, Part 1, Day 8 (multiple administration), 450 mg/day, n=3
[12] = oral, 650 mg/day, Expansion part, Empty Stomach, 650 mg/day, n=6
[13] = oral, 650 mg/day, Expansion part, Fed, 650 mg/day, n=6
[14] = oral, 650 mg/day, Part 1, Day 1 (single administration), 650 mg/day, n=6
[15] = oral, 650 mg/day, Part 1, Day 8 (multiple administration), 650 mg/day, n=5
[16] = oral, 650 mg/day, Part 2, Day 1 (single administration), 650 mg/day, n=6
[17] = oral, 650 mg/day, Part 2, Day 19 (multiple administration), 650 mg/day, n=6
[18] = oral, 800 mg/day, Part 1, Day 1 (single administration), 800 mg/day, n=6
[19] = oral, 800 mg/day, Part 1, Day 8 (multiple administration), 800 mg/day, n=6

For CNC(=O)c1cc2c(Oc3ccc(NC(=S)NC(=O)Cc4ccccc4)cc3F)ccnc2cc1OC [TAS-115], the “osteoclast differentiation induced by M-CSF and RANKL” value [1] is given as “dose-dependent inhibition”, the “change of VEGFR2” value (soluble VEGFR2 (sVEGFR2); 6 h post-dose on Day 19 compared with pre-dose on Day 19, P = .0204) is given as “decrease” and the “marked alterations of sVEGFR2 from Day 1” value (soluble VEGFR2 (sVEGFR2); in vivo) is given as “not observed”. For the same molecule, the IC50 (recombinant VEGFR2) was 30 nM, the IC50 (recombinant MET) was 32 nM and the “dose dependence of AUC0–24 / systemic exposure” value ([2]; after single administration, part 1) was “increased almost dose-proportionally; also recorded: increased dose-proportionally over the tested range from 200 mg to 650 mg”. The “geometric mean ratio (90% CI) of AUC0–24, fed to empty stomach condition” value [2, 5] was 0.812 (0.414–1.593), the “geometric mean ratio (90% CI) of Cmax, fed to empty stomach condition” value [2, 5] was 0.545 (0.243–1.224) and the half-life ([2]; oral, 200 mg/day, Part 1, Day 1 (single administration), 200 mg/day, n=2) was 15.2 h. For the same molecule, the AUC(0-t) [2, 6] was 20000 ng·h/mL, the Cmax [2, 6] was 2490 ng/mL and the Tmax ([2]; oral, 200 mg/day, Part 1, Day 1 (single administration), 200 mg/day, n=3, read-out: tmax Median) was 1 h. For the same molecule, the AUC(0-t) [2, 7] was 22700 ng·h/mL, the Cmax [2, 7] was 2950 ng/mL and the half-life [2, 7] was 26.6 h. For the same molecule, the Tmax ([2]; oral, 200 mg/day, Part 1, Day 8 (multiple administration), 200 mg/day, n=3, read-out: tmax Median) was 1 h, the AUC(0-t) [2, 8] was 23200 ng·h/mL and the Cmax [2, 8] was 3500 ng/mL. It also gave a half-life [2, 8] of 20.4 h, a Tmax ([2]; oral, 300 mg/day, Part 1, Day 1 (single administration), 300 mg/day, n=3, read-out: tmax Median) of 1 h and an AUC(0-t) [2, 9] of 32500 ng·h/mL. It also gave a Cmax [2, 9] of 3900 ng/mL, a half-life [2, 9] of 15.9 h and a Tmax ([2]; oral, 300 mg/day, Part 1, Day 8 (multiple administration), 300 mg/day, n=2, read-out: tmax Median) of 1.5 h. It also gave an AUC(0-t) [2, 10] of 28800 ng·h/mL, a Cmax [2, 10] of 4540 ng/mL and a half-life [2, 10] of 12.6 h. It also gave a Tmax ([2]; oral, 450 mg/day, Part 1, Day 1 (single administration), 450 mg/day, n=3, read-out: tmax Median) of 1 h, an AUC(0-t) [2, 11] of 37000 ng·h/mL and a Cmax [2, 11] of 4310 ng/mL. The half-life [2, 11] was 11.4 h, the Tmax ([2]; oral, 450 mg/day, Part 1, Day 8 (multiple administration), 450 mg/day, n=3, read-out: tmax Median) was 1 h and the AUC(0-t) [2, 12] was 39300 ng·h/mL. The Cmax [2, 12] was 4760 ng/mL, the Tmax ([2]; oral, 650 mg/day, Expansion part, Empty Stomach, 650 mg/day, n=6, read-out: tmax Median) was 2 h and the AUC(0-t) [2, 13] was 41700 ng·h/mL. It also gave a Cmax [2, 13] of 3900 ng/mL, a Tmax ([2]; oral, 650 mg/day, Expansion part, Fed, 650 mg/day, n=6, read-out: tmax Median) of 5 h and an AUC(0-t) [2, 14] of 59700 ng·h/mL. The Cmax [2, 14] was 7700 ng/mL, the half-life [2, 14] was 10.3 h and the Tmax ([2]; oral, 650 mg/day, Part 1, Day 1 (single administration), 650 mg/day, n=6, read-out: tmax Median) was 1 h. The half-life ([2]; oral, 650 mg/day, Part 1, Day 8 (multiple administration), 650 mg/day, n=4) was 8.7 h, the AUC(0-t) [2, 15] was 54500 ng·h/mL and the Cmax [2, 15] was 5040 ng/mL. The Tmax ([2]; oral, 650 mg/day, Part 1, Day 8 (multiple administration), 650 mg/day, n=5, read-out: tmax Median) was 2 h, the half-life ([2]; oral, 650 mg/day, Part 2, Day 1 (single administration), 650 mg/day, n=5) was 14.5 h and the AUC(0-t) [2, 16] was 49800 ng·h/mL. For the same molecule, the Cmax [2, 16] was 7510 ng/mL, the Tmax ([2]; oral, 650 mg/day, Part 2, Day 1 (single administration), 650 mg/day, n=6, read-out: tmax Median) was 1 h and the AUC(0-t) [2, 17] was 56700 ng·h/mL. The Cmax [2, 17] was 7370 ng/mL, the half-life [2, 17] was 16.8 h and the Tmax ([2]; oral, 650 mg/day, Part 2, Day 19 (multiple administration), 650 mg/day, n=6, read-out: tmax Median) was 1 h. The AUC(0-t) [2, 18] was 37800 ng·h/mL, the Cmax [2, 18] was 4910 ng/mL and the half-life [2, 18] was 13.7 h. The Tmax ([2]; oral, 800 mg/day, Part 1, Day 1 (single administration), 800 mg/day, n=6, read-out: tmax Median) was 1 h, the AUC(0-t) [2, 19] was 44600 ng·h/mL and the Cmax [2, 19] was 5220 ng/mL. It also gave a half-life [2, 19] of 12.8 h, a Tmax ([2]; oral, 800 mg/day, Part 1, Day 8 (multiple administration), 800 mg/day, n=6, read-out: tmax Median) of 1.5 h and a Tmax ([2]; po, oral administration, across dose levels, read-out: median time to maximum concentration (tmax)) of 1 to 2 h. For the same molecule, the accumulation ([2]; multiple dosing for 8 days, part 1) was “no accumulation”, the “change of VEGF” value (VEGF; 6 h post-dose on Day 19 compared with pre-dose on Day 19, P = .0844) was “increase” and the “marked alterations of VEGF from Day 1” value (VEGF; in vivo) was “not observed”. The IC50 (192-panel kinase) was < 1000 nM, the “antitumor effect in a patient with bladder cancer with metastases” value (advanced solid tumors; 650 mg 5-on/2-off discontinued at week 7, after discontinuation without further antitumor treatment) was “the lung metastatic lesions disappeared” and the “complete or partial response by RECIST evaluation” value (advanced solid tumors; all parts) was “no patients who showed complete or partial response”. The “minor tumor shrinkage of target lesions” value (advanced solid tumors; patients determined as having progressive disease (PD)) was “four patients”, the “HGF, and VEGF-induced phosphorylation of signaling factors (AKT and ERK1/2)” value [3] was “suppressed” and the “antitumor effect in mouse xenograft models” value [4] was “potent antitumor effect, inhibiting tumor growth and abnormal bone remodeling”. For the same molecule, the “change of sMET in plasma” value (soluble MET (sMET); Day 19, 6 h after administration, part 2 and expansion part, P = .0055) was “significant increase”, the “change of sMET in plasma” value (soluble MET (sMET); Day 19 pre-dose, part 2 and expansion part, P = .0015) was “significant increase” and the “change of sMET in plasma” value (soluble MET (sMET); Day 22 in part 1, P = .0031) was “significant increase”.
